In patent US20070207967A1, “Peptide Inhibitors of Matrix Metalloproteinase Activity” (CTT CANCER TARGETING TECHNOLOGIES OY, priority 2004, published 2007):

How the values were obtained:
[1] = target: T1, aminophenylmercuric acetate (APMA)-activated MMP-2 (Homo sapiens, UniProt P08253); experiment: Gelatinase inhibition assay (gelatin degradation), MMP-2; assay type: biochemical; settings: biotinylated gelatin substrate
T1 sequence (P08253 110-660): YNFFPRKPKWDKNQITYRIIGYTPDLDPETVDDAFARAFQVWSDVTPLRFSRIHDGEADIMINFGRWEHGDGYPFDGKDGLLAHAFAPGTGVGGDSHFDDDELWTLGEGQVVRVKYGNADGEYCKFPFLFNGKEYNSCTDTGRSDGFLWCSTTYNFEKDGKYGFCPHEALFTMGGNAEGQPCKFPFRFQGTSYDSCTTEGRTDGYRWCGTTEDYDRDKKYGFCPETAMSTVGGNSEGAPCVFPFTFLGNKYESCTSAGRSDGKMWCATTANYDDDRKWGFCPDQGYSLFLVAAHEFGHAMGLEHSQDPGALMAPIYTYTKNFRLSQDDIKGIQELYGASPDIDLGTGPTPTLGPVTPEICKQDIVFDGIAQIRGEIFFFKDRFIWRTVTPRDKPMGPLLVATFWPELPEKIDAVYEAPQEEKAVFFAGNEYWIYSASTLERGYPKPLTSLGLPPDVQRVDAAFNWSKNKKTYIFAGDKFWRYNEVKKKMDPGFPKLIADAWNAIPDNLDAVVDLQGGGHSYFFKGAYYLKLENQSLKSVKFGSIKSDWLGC
Method: Gelatinase inhibition assay. Inhibition of aminophenylmercuric acetate (APMA)-activated MMP-2 and trypsin-activated MMP-9 was performed using biotinylated gelatin as a substrate (15).

[2] = target: T2, MMP-9 C domain (Homo sapiens, UniProt P14780); experiment: Dimerization of the MMP-9 C domain; assay type: binding; settings: 125I-labelled C domain on unlabelled C domain
T2 construct: MMP-9 (Asp^494-Asp^688) were expressed as described (16); made in house; host or cells: E. coli (β5 fragment)
T2 sequence (P14780 513-707 limits assumed): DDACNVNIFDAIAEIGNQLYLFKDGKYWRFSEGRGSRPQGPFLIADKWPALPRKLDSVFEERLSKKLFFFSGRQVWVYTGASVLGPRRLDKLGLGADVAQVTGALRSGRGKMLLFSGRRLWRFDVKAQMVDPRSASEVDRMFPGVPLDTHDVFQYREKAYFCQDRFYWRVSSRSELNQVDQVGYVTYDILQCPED
Method: Dimerization of the MMP-9 C domain. Recombinant C domain or CBD at a 5 μg/ml concentration in PBS were coated on microtiter wells followed by blocking with 1% BSA-PBST. ^125I-labelled C domain was preincubated with the peptides for 30 minutes in 1% BSA-PBST and then added to the wells. After a 2 hour incubation, the wells were washed. Bound radioactivity was eluted with 1% SDS and measured with a gamma-counter.

[3] = system: HT1080 fibrosarcoma; experiment: HT1080 invasion through matrigel; assay type: cell-based, human; settings: 200 μM concentration
Method: Cell migration and invasion. The cell migration assay was conducted using transwell migration chambers (8 μm pore size, Costar) in 10% serum-containing medium (2,14). Briefly, the membranes were coated on both sides with 40 μg/ml GST or with the β2 integrin ligand peptide […]-GST fusion (GST-LLG-C4) and blocked with complete medium. THP-1 cells (50 000/100 μl) were preincubated with the peptides for 1 h in serum-containing medium. The cells were allowed to migrate for 16 h and were then stained with crystal violet and counted (14). The HT1080 (20 000 cells/I100 μl) invasion assay was performed as the THP-1 migration, except that matrigel coated transwells (BD Biosciences) were used.

[4] = target: αM integrin I domain (Homo sapiens, UniProt P11215); experiment: Pro-MMP-9 binding to αM integrin I domain
Sequence of αM integrin I domain (P11215 150-328 limits assumed): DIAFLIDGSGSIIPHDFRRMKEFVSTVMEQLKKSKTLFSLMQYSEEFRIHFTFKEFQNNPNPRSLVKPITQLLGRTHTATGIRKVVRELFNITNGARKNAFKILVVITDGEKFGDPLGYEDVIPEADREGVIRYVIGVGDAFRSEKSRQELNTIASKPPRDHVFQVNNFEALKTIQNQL
Method: Pro-MMP-9 and gelatin binding to leukocyte αM integrin. Pro-MMP-9 binding to the αM I domain in the presence of peptides was studied as described (12). Gelatin binding to the pro-MMP-^9/αMβ2 integrin complex was studied by immobilizing the integrin αMβ2 (12) or αIIbβ3 as a control (Enzyme Research Laboratories, South Bend, Ind.) (1 μg/well) in TBS/1 mM CaCl2/1 mM MgCl2 followed by saturation of the wells with 1% BSA in PB ST. Pro-MMP-9 (100 ng/well) was incubated for 2 h and the unbound pro-MMP-9 was washed away. Biotinylated gelatin (2.5 μg/ml) was allowed to bind for 30 min at room temperature. Bound gelatin was detected with streptavidin-peroxidase.

[5] = target: T3, pro-MMP-9 (Homo sapiens, UniProt P14780); experiment: Plasmin/MMP-3-mediated pro-MMP-9 activation in HT1080 cells, zymography; assay type: cell-based; settings: PDBu-activated HT1080, plasminogen, peptides 200 μM
T3 sequence (P14780 20-707 limits assumed): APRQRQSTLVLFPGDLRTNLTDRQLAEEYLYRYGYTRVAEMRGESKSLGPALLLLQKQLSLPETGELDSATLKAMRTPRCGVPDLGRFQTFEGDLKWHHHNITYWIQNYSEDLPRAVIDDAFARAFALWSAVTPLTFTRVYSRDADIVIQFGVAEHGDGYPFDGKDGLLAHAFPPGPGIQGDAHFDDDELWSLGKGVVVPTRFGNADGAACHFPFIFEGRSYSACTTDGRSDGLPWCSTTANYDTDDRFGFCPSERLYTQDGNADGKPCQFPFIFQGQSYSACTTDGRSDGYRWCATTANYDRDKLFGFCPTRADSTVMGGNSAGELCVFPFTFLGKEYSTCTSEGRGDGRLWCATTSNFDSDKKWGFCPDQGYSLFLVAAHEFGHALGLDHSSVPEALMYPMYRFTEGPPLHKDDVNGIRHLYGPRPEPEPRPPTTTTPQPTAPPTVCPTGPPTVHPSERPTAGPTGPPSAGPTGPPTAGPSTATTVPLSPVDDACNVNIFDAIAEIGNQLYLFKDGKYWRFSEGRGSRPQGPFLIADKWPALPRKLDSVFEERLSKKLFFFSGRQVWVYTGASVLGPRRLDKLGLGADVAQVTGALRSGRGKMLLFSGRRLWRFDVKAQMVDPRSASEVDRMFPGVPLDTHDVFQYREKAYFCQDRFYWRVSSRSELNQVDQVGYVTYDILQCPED
Method: Activation of MMP-9. THP-1 cells (40 000/100 μl) or confluent HT1080 cells were incubated for 16 h in the presence or absence of 2.5 μg/ml plasminogen, 0.5 μg/ml pro-MMP-3 (Oncogene Research Products), 40 nM PDBu, and the peptides at a 200 μM concentration unless otherwise indicated. Aliquots of the conditioned media were analyzed by gelatin zymography (9). […] The samples were analyzed by gelatin zymography.

[6] = target: T3, pro-MMP-9; experiment: Activation of purified pro-MMP-9 by MMP-3 in vitro; assay type: biochemical; settings: 200 μM, 1 h, 37° C.
[7] = system: HT1080 cells; experiment: HT1080 cell adhesion to vitronectin or fibronectin; assay type: cell-based, human; settings: proteins 40 μg/ml, CRV peptide 200 μM
Method: Cell adhesion. HT1080 cells were allowed to adhere on vitronectin or fibronectin (2 μg/ml) in the presence or absence of peptides (200 μM), proteins (40 μg/ml) or a monoclonal anti-αvβ5 integrin antibody P1F6 (Chemicon) or a control antibody (25 μg/ml). The adhesion was quantified as described (14). Adhesion of THP-1 cells to immobilized KIM127 or control monoclonal antibodies (2 μg/ml) was done in the presence or absence of soluble proteins (50 μg/ml) or antibodies (25 μg/ml).

[8] = system: HSC-3 tongue squamous cell carcinoma xenografts; experiment: Tumor growth in vivo, HSC-3 xenografts
Method: Tumor growth in vivo. […] HSC-3 tumors were established by administering 5×10^6 tumor cells in a 100 μl volume in PBS in both flanks of the Hsd:Athymic Nude-nu mice. After three days, the mice received five daily injection of 0.8 mg/ml CRV or the scrambled peptide or the vehicle (PBS) via the tail vein in a 200 μl volume. Three-dimensional caliper measurements were taken twice a week and the tumor volumes calculated. Mice were sacrificed when the tumor volume reached 1000 mm^3. For the staining of the tumor vasculature, 7 μm frozen tissue sections were stained with anti-CD31 antibody (MEC 13.3, BD Biosciences) and anti-rat Alexa Fluor 488 antibodies.

CRVYGPYLLC
Inhibition of MMP-2 activity in gelatin degradation assay [1]: did not inhibit
Inhibition of dimerization of the C domain [2]: inhibited
Inhibition of HT1080 invasion into matrigel [3]: 50%
Effect on interaction of MMP-9 with the leukocyte αM integrin I domain [4]: do not affect
Inhibition of pro-MMP-9 activation [5]: inhibited pro-MMP-9 activation strongly
Inhibition of activation of purified pro-MMP-9 by MMP-3 [6]: did not inhibit
Inhibition of HT1080 cell adhesion to vitronectin or fibronectin [7]: Neither
Survival of the mice ([8]; after two months): all five CRV-injected mice were alive
Inhibition of tumor growth ([8]; at 31 days, five daily i.v. injections, vs scrambled peptide or PBS): statistically significant inhibition of tumor growth
Kaplan-Meier survival, Log-Rank test p vs. PBS ([8]; mouse, in vivo): 0.002
Kaplan-Meier survival, Log-Rank test p vs. scrambled CRV ([8]; mouse, in vivo): 0.003
Tumor vasculature, CD31 immunostaining ([8]; mouse, in vivo): less developed tumor vasculature
